Reference: PubChem BioAssay AID492986 (Sanford-Burnham Center for Chemical Genomics, 2010)
Active and inactive are the calls of the source.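 How the source made its calls: active means IC50 below 20 µM; inactive means the rest.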

molecular target: Apelin receptor (Homo sapiens) (UniProt P35414); experiment: APJ receptor antagonists, beta-arrestin recruitment, SAR follow-up, cell-based, CHO-K1 AGTRL-1, PathHunter luminescence, set 4 (AID 492986); conditions: CHO-K1 AGTRL-1 beta-arrestin
Sequence (P35414 whole entry, looked up): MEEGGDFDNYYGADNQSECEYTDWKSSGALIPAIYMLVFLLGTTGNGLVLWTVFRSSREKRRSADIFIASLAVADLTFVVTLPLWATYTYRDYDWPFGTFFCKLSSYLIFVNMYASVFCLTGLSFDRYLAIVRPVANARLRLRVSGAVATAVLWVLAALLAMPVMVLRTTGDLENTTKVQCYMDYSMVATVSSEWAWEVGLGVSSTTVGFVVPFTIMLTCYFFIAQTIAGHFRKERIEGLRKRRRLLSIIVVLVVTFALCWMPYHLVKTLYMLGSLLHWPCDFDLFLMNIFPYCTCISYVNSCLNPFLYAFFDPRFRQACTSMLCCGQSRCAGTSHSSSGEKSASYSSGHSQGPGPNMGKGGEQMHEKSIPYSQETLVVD

IC50, inactive:
O=C(Oc1coc(CCl)cc1=O)c1ccc(Cl)c([N+](=O)[O-])c1 > 79 µM, Cc1cc(C)nc(SCc2cc(=O)c(OS(=O)(=O)c3ccc([N+](=O)[O-])cc3)co2)n1 > 79 µM, Cc1ccnc(SCc2cc(=O)c(OC(=O)c3cccc(C#N)c3)co2)n1 > 79 µM, O=c1cc(CSc2ccc(F)cc2)occ1O > 79 µM, Cc1ccnc(SCc2cc(=O)c(NC(=O)c3ccccc3)co2)n1 > 79 µM, Cc1cc(C)nc(SCc2cc(=O)c(OS(=O)(=O)c3ccccc3)co2)n1 > 79 µM
